# Source: patent publication US20110065628A1, “Medication Combinations for the Treatment of Alcoholism and Drug Addiction” (UNIVERSITY OF VIRGINIA PATENT FOUNDATION, priority 2007, published 2011)
# Structures can show the parent of a compound that is named as a salt.
# Key:
# [1] = tested on: alcohol-preferring (P) rats; assay: Combined topiramate and naltrexone on alcohol consumption; format: in vivo
# Procedure: FIG. 8 graphically illustrates the combined effect of topiramate and naltrexone on alcohol consumption in alcohol-preferring (P) rats. Rats received either vehicle, topiramate at 5 mg/kg, topiramate at 10 mg/kg, naltrexone at 1/mg/kg and topiramate at 5 mg/kg, naltrexone at 1/mg/kg and topiramate at 10 mg/kg, or naltrexone at 1 mg/kg. Each data point represents the mean (±SE) of 8 rats as a change from baseline.
# No significant differences were observed following vehicle injection. Data are plotted as change from baseline consumption, and each data point represents a mean (±SE) of 8 rats.
# [2] = tested on: individuals in alcohol trials; conditions: cited from earlier work
# [3] = tested on: alcohol consumption (8% w/v) in rhesus monkeys; assay: Naltrexone effect on alcohol drinking, fixed ratio schedule, 3 hour sessions; format: in vivo; conditions: increasing doses of naltrexone 0.1, 0.3, 1.0, 3.0 g/kg; three non food deprived rhesus monkeys
# Procedure: FIG. 3 graphically illustrates the effects of Naltrexone on alcohol consumption in non-human primates (rhesus monkeys). Naltrexone was administered at 0.1 (∘), 0.3 ([…]), 1.0 (□) or 3.0 (▪) […]. The ordinate represents cumulative deliveries as percent change from baseline. The abscissa represents time in 10 minute blocks.
# During these 3 hour sessions, both water and alcohol were concurrently available.
# [4] = tested on: patients with alcohol and nicotine dependence; assay: Open-label 8 week naltrexone study with coping skills therapy; format: in vivo, human; conditions: naltrexone 50 mg/day, 8 weeks
# Description: In an open-label study, we evaluated the efficacy of naltrexone, an opioid antagonist, in the treatment of alcohol dependence. Since up to 92% of alcoholics are also co-dependent on nicotine, our cohort included dually dependent individuals. […] From a local newspaper advertisement, we enrolled 10 subjects (6 males and 4 females; aged 40±2.56 years) into the study. All patients met DSM III-R criteria for both alcohol and nicotine dependence. Patients were instructed that the goal of treatment was abstinence by the end of the study. Patients received naltrexone (50 mg/day) in unmarked capsules with a riboflavin tracer for an 8 week period. Weekly attendance included combined coping skills therapy for alcohol and nicotine dependence, nursing visits, and completion of rating scales. […] Drop-out rate at 30% was similar to that observed in medication trials for alcoholism. This study supports the clinical evidence that naltrexone is a useful adjunct to Cognitive Behavioral Therapy for the treatment of alcoholism. Naltrexone's effects on cigarette smoking appears small but may warrant further exploration.
# alcoholics (EOA and LOA) = assay: 11-week double-blind ondansetron trial with weekly Cognitive Behavioral Therapy; format: in vivo, human; conditions: for Drinks/Day / Drinks/Drinking Day: at endpoint; for Drinks/Day: placebo 3.30; for Drinks/Drinking Day: placebo 6.90
# Description: It was hypothesized herein that the drinking outcomes of EOA, compared with LOA, would be more improved by the selective serotonin antagonist, ondansetron. EOA differ from LOA by having greater serotonergic abnormality, an earlier age of onset, and antisocial behaviors. Thus, EOA may be especially responsive to treatment with a selective serotonergic agent.
# The design was as follows: 321 alcoholics (EOA=161; LOA=160; mean age 40.6 years; 70.5% male, and 78.6% white) received one lead in week of single-blind placebo followed by 11 weeks of double-blind outpatient treatment using a 2×4 factorial design which examined age of onset (EOA vs. LOA) and medication dose (placebo, or ondansetron 1, 4, or 16 μg/kg b.i.d) combined with weekly standardized group Cognitive Behavioral Therapy. Efficacy measures were: 1) Self reported drinking (Drinks/Day, Drinks/Drinking Day, Percent Days Abstinent, and Total Days Abstinent/study week), and 2) plasma Carbohydrate Deficient Transferrin level (CDT).
# EOA and LOA alcoholics = conditions: EOA compared with LOA; 1, 4, 16 μg/kg twice daily, particularly 4 μg/kg; cited from earlier work
# [5] = tested on: alcohol-preferring (P) rats; assay: 24-hour-access two-bottle choice alcohol consumption, topiramate, ondansetron, naltrexone; format: in vivo
# Procedure: FIG. 10, comprising 5 panels—FIGS. 10A to 10E, graphically illustrates the combined effect of topiramate (10 mg/kg, IP), ondansetron (0.001 mg/kg, IP), and naltrexone (1 mg/kg, IP) on alcohol consumption in alcohol-preferring (P) rats. 10A—Topiramate alone; 10B—Ondansetron alone; 10C—Vehicle; 10D—Topiramate+Ondansetron; 10E—Topiramate+Ondansetron+Naltrexone. Data are plotted across seven consecutive sessions, which include a 3-day baseline period, the test session in which the ondansetron, topiramate, and naltrexone injection was administered, and the three sessions that followed the test session. Each data point represents a mean (±SE) of at least six rats. The ordinate represents ethanol intake in g/kg and the abscissa represents session number.
# The effects of ondansetron, topiramate, and naltrexone, medications shown to be efficacious in treating alcohol-dependent humans, on measures of alcohol dependence were determined in animal models in order to determine whether these medications may produce additive effects when combined. The experiments examined their ability to modulate total consumption under a 24-hour-access two-bottle choice procedure wherein rats had unlimited access to alcohol solutions (10%) and water. […]
# [6] = tested on: patients with alcoholism (DSM III-R); assay: 12-week outpatient placebo-controlled ritanserin trial with Cognitive Behavioral Therapy; format: in vivo, human; conditions: ritanserin 2.5 mg or 5 mg, 12 weeks
# Procedure: FIG. 5 graphically illustrates the effects of treatment with Ritanserin in conjunction with Cognitive Behavioral Therapy. The ordinate represents the mean number of drinks since the last visit and the abscissa indicates the time period of assessment in the study (in weeks). Subjects were treated with 2.5 mg Ritanserin ([…]), 5.0 mg Ritanserin ? or received placebo (▴).
# In this study, we examined the efficacy of ritanserin on alcohol consumption in a 12-week, outpatient, placebo-controlled clinical trial. This study overlapped in time and recruitment effort with the ondansetron study described above. Therefore, our research group has the expertise to conduct multiple treatment studies simultaneously. Fifty-four patients from our center who met DSM III-R criteria for alcoholism participated and were randomized to receive placebo, 2.5 mg, or 5 mg of ritanserin. All patients received standardized manual driven Cognitive Behavioral Therapy for alcoholism. Cognitive Behavioral Therapy was conducted by counselors with extensive experience with behavioral treatments, and over 500 therapy hours were logged. […] There was no within time effect nor group interaction. Similarly, there was no difference in craving between the treatment groups.
# [7] = tested on: alcohol-dependent men and women; conditions: topiramate up to 300 mg per day, 12 weeks; cited from earlier work
# [8] = tested on: individuals who take topiramate; conditions: cited from earlier work
# [9] = EOA, ondansetron 1 μg/kg b.i.d, p<0.05
# [10] = EOA, ondansetron 4 μg/kg b.i.d, p<0.05
# [11] = N=321, 88 received the 4 μg/kg dose
structure (smiles),measurement,setting,value
"O=C1CC[C@@]2(O)[C@H]3Cc4ccc(O)c5c4[C@@]2(CCN3CC2CC2)[C@H]1O5 [naltrexone, 17-(Cyclopropylmethyl)-4,5 a-epoxy-3,14-dihydroxymorphinan-6-one hydrochloride]","alcohol consumption, change from baseline","[1]; naltrexone alone, 1 mg/kg intraperitoneally",did not affect alcohol consumption on its own
same,rate of subject withdrawal due to naltrexone induced nausea,"[2]; Croop and Colleagues, 570 received naltrexone",15%
same,individuals unable to tolerate naltrexone,[2]; naltrexone dose of 50 mg/day,about 15%
same,alcohol consumption,[3],dose-dependent decreases
same,nicotine withdrawal symptoms,[4],No patient reported clinically significant nicotine withdrawal symptoms
same,alcohol consumption,"[4]; before 3.29±2.16 drinks/day, p<0.05",2.16±1.88 drinks/day
same,smoking,[4]; before 21.10±5.57 cigarettes/day,15.93±3.09 cigarette/day
"Cc1nccn1CC1CCc2c(c3ccccc3n2C)C1=O (stereo not shown) [ondansetron, 9-methyl-3-[(2-methyl-1H-imidazol-1-yl)methyl]-1,2,3,9-tetrahydrocarbazol-4-one]",Drinks/Day,alcoholics (EOA and LOA); [9],1.89
same,Drinks/Drinking Day,alcoholics (EOA and LOA); [9],4.75
same,mean log CDT ratio between endpoint and enrollment,"alcoholics (EOA and LOA); EOA, ondansetron 1 μg/kg b.i.d, placebo +0.11, p<0.05",−0.17
same,Drinks/Day,alcoholics (EOA and LOA); [10],1.56
same,Drinks/Drinking Day,alcoholics (EOA and LOA); [10],4.28
same,Drinking outcomes in LOA,alcoholics (EOA and LOA); LOA,not improved substantially
same,nausea,alcoholics (EOA and LOA); [11],nausea was not reported
same,side-effects vs. placebo,alcoholics (EOA and LOA); [11],no side-effect was reported more often than placebo
same,Total Days Abstinent/study week,"alcoholics (EOA and LOA); ondansetron 4 μg/kg b.i.d, placebo 5.92, p<0.05",6.74
same,Percent Days Abstinent,"alcoholics (EOA and LOA); ondansetron 4 μg/kg b.i.d, placebo 50.20, p<0.05",70.10
same,drinking,EOA and LOA alcoholics,significant reductions in drinking
same,alcohol consumption,[5]; ondansetron alone 0.001 mg/kg intraperitoneally (FIG. 10B),did not affect alcohol consumption on its own
Cc1nc2sccn2c(=O)c1CCN1CCC(=C(c2ccc(F)cc2)c2ccc(F)cc2)CC1 [ritanserin],alcohol consumption,[6],no clinically significant effect
same,craving,[6],no clinically significant effect
"CC1(C)O[C@@H]2[C@@H](CO[C@@]3(COS(N)(=O)=O)OC(C)(C)O[C@@H]23)O1 [topiramate, 2,3:4,5-Bis-O-(1-methylethylidene)-beta-D-fructopyranose sulfamate]","alcohol consumption, change from baseline","[1]; topiramate alone, 10 mg/kg intraperitoneally, effect not yet significant",only modestly decreased alcohol consumption
same,craving vs. placebo,[7],significantly less craving
same,days of abstinence vs. placebo,[7],significantly more days of abstinence
same,"drinks per day, drinking days, drinks per drinking day vs. placebo",[7],"significantly fewer drinks per day, drinking days, and drinks per drinking day"
same,"cognitive impairment, reported rate",[8]; general population,2.4%
same,"cognitive impairment, occurrence rate",[8]; substance abuse field,about 18.7%
same,decrease in alcohol consumption from baseline,[5]; topiramate alone 10 mg/kg intraperitoneally (FIG. 10A),12%±8%
